Columns and labels:
Assay in all cases: Off-Target Kinase Profiling
Format in all cases: biochemical
Conditions in all cases: 10 μM; ATP near Km
TAO1 = target: T1, TAO1 (Homo sapiens, UniProt Q7L7X3)
T1 construct: purchased Millipore, Inc. (KinaseProfiler service)
Experimental: (§1) Representative compounds of the invention (Examples 33 and 10) were tested for off-target kinase activity at a concentration of 10 μM by Millipore, Inc. in their KinaseProfiler™ service against all the kinases available in their full kinase panel. Compounds were run in duplicate at a concentration of ATP near the Km for each individual kinase according to Millipore's specifications. The results are shown in Table B. Data are reported as percent of control (POC) and are the average of the two replicates.

Ret = target: T2, Ret (Homo sapiens, UniProt P07949)
T2 construct: purchased Millipore, Inc. (KinaseProfiler service)
Experimental: as §1

JNK3 = target: T3, JNK3 (Homo sapiens, UniProt P53779)
T3 construct: purchased Millipore, Inc. (KinaseProfiler service)
Experimental: as §1

Rsk4 = target: T4, Rsk4 (Homo sapiens, UniProt Q9UK32)
T4 construct: purchased Millipore, Inc. (KinaseProfiler service)
Experimental: as §1

IGF-1R = target: T5, IGF-1R (Homo sapiens, UniProt P08069)
T5 construct: purchased Millipore, Inc. (KinaseProfiler service)
Experimental: as §1

GSK3alpha = target: T6, GSK3alpha (Homo sapiens, UniProt P49840)
T6 construct: purchased Millipore, Inc. (KinaseProfiler service)
Experimental: as §1

SGK1 = target: T7, SGK1 (Homo sapiens, UniProt O00141)
T7 construct: purchased Millipore, Inc. (KinaseProfiler service)
Experimental: as §1

ROCK-I = target: T8, ROCK-I (Homo sapiens, UniProt Q13464)
T8 construct: purchased Millipore, Inc. (KinaseProfiler service)
Experimental: as §1

MKK4_m = target: T9, MKK4_m (Mus musculus, UniProt P47809)
T9 construct: purchased Millipore, Inc. (KinaseProfiler service)
Experimental: as §1

Rse = target: T10, Rse (Homo sapiens, UniProt Q06418)
T10 construct: purchased Millipore, Inc. (KinaseProfiler service)
Experimental: as §1

MEK1 = target: T11, MEK1 (Homo sapiens, UniProt Q02750)
T11 construct: purchased Millipore, Inc. (KinaseProfiler service)
Experimental: as §1

PASK = target: T12, PASK (Homo sapiens, UniProt Q96RG2)
T12 construct: purchased Millipore, Inc. (KinaseProfiler service)
Experimental: as §1

TLK2 = target: T13, TLK2 (Homo sapiens, UniProt Q86UE8)
T13 construct: purchased Millipore, Inc. (KinaseProfiler service)
Experimental: as §1

Pim-3 = target: T14, Pim-3 (Homo sapiens, UniProt Q86V86)
T14 construct: purchased Millipore, Inc. (KinaseProfiler service)
Experimental: as §1

ERK2 = target: T15, ERK2 (Homo sapiens, UniProt P28482)
T15 construct: purchased Millipore, Inc. (KinaseProfiler service)
Experimental: as §1

MARK1 = target: T16, MARK1 (Homo sapiens, UniProt Q9P0L2)
T16 construct: purchased Millipore, Inc. (KinaseProfiler service)
Experimental: as §1

TrkA = target: T17, TrkA (Homo sapiens, UniProt P04629)
T17 construct: purchased Millipore, Inc. (KinaseProfiler service)
Experimental: as §1

NEK7 = target: T18, NEK7 (Homo sapiens, UniProt Q8TDX7)
T18 construct: purchased Millipore, Inc. (KinaseProfiler service)
Experimental: as §1

CDK9/cyclinT1 = target: T19, CDK9/cyclinT1 (Homo sapiens, UniProt P50750)
T19 construct: purchased Millipore, Inc. (KinaseProfiler service)
Experimental: as §1

TrkB = target: T20, TrkB (Homo sapiens, UniProt Q16620)
T20 construct: purchased Millipore, Inc. (KinaseProfiler service)
Experimental: as §1

HIPK3 = target: T21, HIPK3 (Homo sapiens, UniProt Q9H422)
T21 construct: purchased Millipore, Inc. (KinaseProfiler service)
Experimental: as §1

Met = target: T22, Met (Homo sapiens, UniProt P08581)
T22 construct: purchased Millipore, Inc. (KinaseProfiler service)
Experimental: as §1

MKK7beta = target: T23, MKK7beta (Homo sapiens, UniProt O14733)
T23 construct: purchased Millipore, Inc. (KinaseProfiler service)
Experimental: as §1

RIPK2 = target: T24, RIPK2 (Homo sapiens, UniProt O43353)
T24 construct: purchased Millipore, Inc. (KinaseProfiler service)
Experimental: as §1

MAPKAP-K3 = target: T25, MAPKAP-K3 (Homo sapiens, UniProt Q16644)
T25 construct: purchased Millipore, Inc. (KinaseProfiler service)
Experimental: as §1

Ros = target: T26, Ros (Homo sapiens, UniProt P08922)
T26 construct: purchased Millipore, Inc. (KinaseProfiler service)
Experimental: as §1

JAK3 = target: T27, JAK3 (Homo sapiens, UniProt P52333)
T27 construct: purchased Millipore, Inc. (KinaseProfiler service)
Experimental: as §1

TAO2 = target: T28, TAO2 (Homo sapiens, UniProt Q9UL54)
T28 construct: purchased Millipore, Inc. (KinaseProfiler service)
Experimental: as §1

PAK6 = target: T29, PAK6 (Homo sapiens, UniProt Q9NQU5)
T29 construct: purchased Millipore, Inc. (KinaseProfiler service)
Experimental: as §1

Tie2 = target: T30, Tie2 (Homo sapiens, UniProt Q02763)
T30 construct: purchased Millipore, Inc. (KinaseProfiler service)
Experimental: as §1

TNK2 = target: T31, TNK2 (Homo sapiens, UniProt Q07912)
T31 construct: purchased Millipore, Inc. (KinaseProfiler service)
Experimental: as §1

PKCdelta = target: T32, PKCdelta (Homo sapiens, UniProt Q05655)
T32 construct: purchased Millipore, Inc. (KinaseProfiler service)
Experimental: as §1

ERK1 = target: T33, ERK1 (Homo sapiens, UniProt P27361)
T33 construct: purchased Millipore, Inc. (KinaseProfiler service)
Experimental: as §1

PKD2 = target: T34, PKD2 (Homo sapiens, UniProt Q9BZL6)
T34 construct: purchased Millipore, Inc. (KinaseProfiler service)
Experimental: as §1

Plk2 = target: T35, Plk2 (Homo sapiens, UniProt Q9NYY3)
T35 construct: purchased Millipore, Inc. (KinaseProfiler service)
Experimental: as §1

KIT = target: T36, KIT (Homo sapiens, UniProt P10721)
T36 construct: purchased Millipore, Inc. (KinaseProfiler service)
Experimental: as §1

KDR = target: T37, KDR (Homo sapiens, UniProt P35968)
T37 construct: purchased Millipore, Inc. (KinaseProfiler service)
Experimental: as §1

CDK5/p25 = target: T38, CDK5/p25 (Homo sapiens, UniProt Q00535)
T38 construct: purchased Millipore, Inc. (KinaseProfiler service)
Experimental: as §1

PrKX = target: T39, PrKX (Homo sapiens, UniProt P51817)
T39 construct: purchased Millipore, Inc. (KinaseProfiler service)
Experimental: as §1

SIK = target: T40, SIK (Homo sapiens, UniProt P57059)
T40 construct: purchased Millipore, Inc. (KinaseProfiler service)
Experimental: as §1

Lyn = target: T41, Lyn (Homo sapiens, UniProt P07948)
T41 construct: purchased Millipore, Inc. (KinaseProfiler service)
Experimental: as §1

T28 sequence (Q9UL54 whole entry): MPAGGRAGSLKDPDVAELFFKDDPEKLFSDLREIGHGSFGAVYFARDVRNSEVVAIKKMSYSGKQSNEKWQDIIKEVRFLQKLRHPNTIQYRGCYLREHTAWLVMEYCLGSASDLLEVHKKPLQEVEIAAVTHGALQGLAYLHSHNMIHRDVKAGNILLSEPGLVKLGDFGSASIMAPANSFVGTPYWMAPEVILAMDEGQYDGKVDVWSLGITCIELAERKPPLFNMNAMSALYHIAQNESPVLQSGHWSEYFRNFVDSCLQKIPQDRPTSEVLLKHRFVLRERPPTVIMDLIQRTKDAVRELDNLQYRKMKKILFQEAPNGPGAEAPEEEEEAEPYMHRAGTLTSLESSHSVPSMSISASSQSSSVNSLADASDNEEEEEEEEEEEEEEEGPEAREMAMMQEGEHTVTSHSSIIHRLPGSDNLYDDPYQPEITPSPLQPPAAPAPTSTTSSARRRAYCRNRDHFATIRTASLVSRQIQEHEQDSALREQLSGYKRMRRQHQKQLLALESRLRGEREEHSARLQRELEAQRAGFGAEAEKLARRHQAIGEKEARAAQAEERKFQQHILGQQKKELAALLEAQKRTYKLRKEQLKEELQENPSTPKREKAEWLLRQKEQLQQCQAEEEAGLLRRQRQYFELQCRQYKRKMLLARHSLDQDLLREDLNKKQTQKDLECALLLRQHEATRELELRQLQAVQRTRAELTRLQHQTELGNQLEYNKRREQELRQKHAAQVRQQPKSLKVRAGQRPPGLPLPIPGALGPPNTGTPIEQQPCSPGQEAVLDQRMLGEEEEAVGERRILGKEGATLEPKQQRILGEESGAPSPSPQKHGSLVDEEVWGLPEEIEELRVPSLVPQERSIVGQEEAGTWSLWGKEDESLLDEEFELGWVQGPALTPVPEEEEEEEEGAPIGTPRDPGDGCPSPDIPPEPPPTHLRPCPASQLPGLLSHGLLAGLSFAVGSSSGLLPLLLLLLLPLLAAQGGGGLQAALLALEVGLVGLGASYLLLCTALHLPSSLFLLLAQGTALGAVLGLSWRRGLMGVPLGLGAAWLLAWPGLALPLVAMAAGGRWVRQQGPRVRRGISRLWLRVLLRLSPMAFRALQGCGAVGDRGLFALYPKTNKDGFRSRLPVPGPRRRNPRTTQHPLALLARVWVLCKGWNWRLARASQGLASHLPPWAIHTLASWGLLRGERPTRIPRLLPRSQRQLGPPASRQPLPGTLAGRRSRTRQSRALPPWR
T20 sequence (Q16620 32-822): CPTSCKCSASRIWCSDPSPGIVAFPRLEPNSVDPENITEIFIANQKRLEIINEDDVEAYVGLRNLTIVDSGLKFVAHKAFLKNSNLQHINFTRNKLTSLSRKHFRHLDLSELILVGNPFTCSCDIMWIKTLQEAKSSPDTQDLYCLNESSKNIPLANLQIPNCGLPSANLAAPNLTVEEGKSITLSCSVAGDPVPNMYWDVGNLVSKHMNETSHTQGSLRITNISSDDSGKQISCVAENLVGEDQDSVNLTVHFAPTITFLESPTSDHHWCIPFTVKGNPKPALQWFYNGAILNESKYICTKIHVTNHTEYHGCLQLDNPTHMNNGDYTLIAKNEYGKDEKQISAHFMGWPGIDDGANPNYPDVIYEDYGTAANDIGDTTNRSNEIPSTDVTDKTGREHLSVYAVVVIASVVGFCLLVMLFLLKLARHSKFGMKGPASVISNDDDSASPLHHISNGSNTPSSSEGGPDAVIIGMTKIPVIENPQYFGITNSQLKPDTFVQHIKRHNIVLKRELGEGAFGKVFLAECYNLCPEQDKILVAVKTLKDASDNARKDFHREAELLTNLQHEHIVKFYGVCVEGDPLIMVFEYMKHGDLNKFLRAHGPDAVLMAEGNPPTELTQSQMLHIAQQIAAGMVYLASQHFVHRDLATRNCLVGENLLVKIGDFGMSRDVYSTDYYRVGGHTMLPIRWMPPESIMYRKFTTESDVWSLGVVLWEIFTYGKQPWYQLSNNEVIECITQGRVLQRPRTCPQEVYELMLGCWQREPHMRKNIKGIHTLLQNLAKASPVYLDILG
T32 sequence (Q05655 whole entry): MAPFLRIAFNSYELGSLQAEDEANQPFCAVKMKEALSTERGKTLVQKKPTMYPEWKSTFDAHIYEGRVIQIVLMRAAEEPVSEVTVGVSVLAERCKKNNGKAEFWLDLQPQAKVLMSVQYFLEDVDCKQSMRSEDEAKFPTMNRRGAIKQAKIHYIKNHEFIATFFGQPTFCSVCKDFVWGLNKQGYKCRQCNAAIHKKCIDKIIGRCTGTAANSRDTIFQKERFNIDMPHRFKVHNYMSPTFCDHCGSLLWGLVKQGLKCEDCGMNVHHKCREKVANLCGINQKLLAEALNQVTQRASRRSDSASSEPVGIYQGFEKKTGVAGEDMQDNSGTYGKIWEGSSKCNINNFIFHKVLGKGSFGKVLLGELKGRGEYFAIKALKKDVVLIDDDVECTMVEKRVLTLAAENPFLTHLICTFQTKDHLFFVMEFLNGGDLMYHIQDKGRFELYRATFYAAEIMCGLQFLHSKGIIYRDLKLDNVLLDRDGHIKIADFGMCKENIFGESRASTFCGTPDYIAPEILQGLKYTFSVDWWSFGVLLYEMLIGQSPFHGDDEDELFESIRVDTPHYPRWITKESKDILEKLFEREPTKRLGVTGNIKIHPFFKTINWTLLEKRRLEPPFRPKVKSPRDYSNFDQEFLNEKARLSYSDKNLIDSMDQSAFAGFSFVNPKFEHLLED
T7 sequence (O00141 whole entry): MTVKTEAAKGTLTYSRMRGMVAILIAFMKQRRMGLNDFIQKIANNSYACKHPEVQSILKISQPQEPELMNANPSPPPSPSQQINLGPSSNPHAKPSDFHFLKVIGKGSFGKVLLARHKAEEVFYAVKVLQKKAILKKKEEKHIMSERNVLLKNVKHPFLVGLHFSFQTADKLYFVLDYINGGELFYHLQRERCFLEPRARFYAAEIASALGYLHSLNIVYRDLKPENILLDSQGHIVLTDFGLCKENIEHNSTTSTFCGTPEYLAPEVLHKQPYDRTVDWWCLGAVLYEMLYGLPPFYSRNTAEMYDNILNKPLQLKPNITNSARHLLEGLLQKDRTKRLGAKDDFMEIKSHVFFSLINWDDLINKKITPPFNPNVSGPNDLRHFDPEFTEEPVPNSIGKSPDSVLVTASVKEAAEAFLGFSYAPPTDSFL
T18 sequence (Q8TDX7 whole entry): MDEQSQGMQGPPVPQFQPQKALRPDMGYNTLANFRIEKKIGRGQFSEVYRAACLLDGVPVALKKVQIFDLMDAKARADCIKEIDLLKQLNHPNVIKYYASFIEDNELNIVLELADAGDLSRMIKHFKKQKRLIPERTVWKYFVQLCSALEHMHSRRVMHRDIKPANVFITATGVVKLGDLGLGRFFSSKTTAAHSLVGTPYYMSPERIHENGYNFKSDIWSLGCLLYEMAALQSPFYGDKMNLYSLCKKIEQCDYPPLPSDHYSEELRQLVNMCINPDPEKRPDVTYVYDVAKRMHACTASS
T33 sequence (P27361 whole entry): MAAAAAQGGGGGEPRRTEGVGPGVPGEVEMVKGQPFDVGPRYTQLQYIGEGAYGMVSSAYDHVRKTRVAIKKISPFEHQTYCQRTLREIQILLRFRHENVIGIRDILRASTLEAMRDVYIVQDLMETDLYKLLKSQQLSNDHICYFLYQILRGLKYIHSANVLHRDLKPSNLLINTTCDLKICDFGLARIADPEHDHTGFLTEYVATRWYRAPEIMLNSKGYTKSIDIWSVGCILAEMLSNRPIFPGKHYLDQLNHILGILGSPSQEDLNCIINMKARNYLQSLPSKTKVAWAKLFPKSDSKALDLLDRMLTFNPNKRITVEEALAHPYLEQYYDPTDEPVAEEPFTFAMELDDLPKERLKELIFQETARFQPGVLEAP
T34 sequence (Q9BZL6 whole entry): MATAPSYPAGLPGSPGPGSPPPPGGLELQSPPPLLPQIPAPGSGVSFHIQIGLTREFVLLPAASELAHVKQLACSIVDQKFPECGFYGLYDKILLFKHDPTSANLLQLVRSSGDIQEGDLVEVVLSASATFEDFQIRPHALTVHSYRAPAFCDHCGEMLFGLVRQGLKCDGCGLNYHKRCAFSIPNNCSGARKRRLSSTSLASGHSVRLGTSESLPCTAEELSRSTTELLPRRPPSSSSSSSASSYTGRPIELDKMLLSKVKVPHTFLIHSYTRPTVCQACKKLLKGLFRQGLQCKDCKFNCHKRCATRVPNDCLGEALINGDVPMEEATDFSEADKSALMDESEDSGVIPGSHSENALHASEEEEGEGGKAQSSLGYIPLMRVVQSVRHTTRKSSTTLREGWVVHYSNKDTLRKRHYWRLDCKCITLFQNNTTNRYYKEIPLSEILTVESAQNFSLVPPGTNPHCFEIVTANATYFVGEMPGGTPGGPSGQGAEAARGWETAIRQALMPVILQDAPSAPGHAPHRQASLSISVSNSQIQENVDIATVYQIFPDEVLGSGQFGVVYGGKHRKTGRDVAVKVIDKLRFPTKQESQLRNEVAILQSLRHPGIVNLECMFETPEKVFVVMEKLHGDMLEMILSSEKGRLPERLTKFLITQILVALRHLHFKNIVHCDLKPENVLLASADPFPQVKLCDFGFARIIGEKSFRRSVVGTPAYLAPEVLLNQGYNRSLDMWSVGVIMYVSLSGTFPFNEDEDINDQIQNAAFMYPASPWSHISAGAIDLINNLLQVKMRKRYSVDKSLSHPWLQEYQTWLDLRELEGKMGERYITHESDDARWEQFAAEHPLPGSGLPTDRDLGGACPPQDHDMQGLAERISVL

SMILES: COCc1ccc(C2CCC2)c(CNC(=O)Nc2c(C)c(-c3cnc(C)nc3)nn2-c2ccccc2)c1 [Example 10, 1-(2-cyclobutyl-5-(methoxymethyl)benzyl)-3-(4-methyl-3-(2-methylpyrimidin-5-yl)-1-phenyl-1H-pyrazol-5-yl)urea]
- Avg POC TAO1 (TAO1): 111 POC
- Avg POC Ret (Ret): 89.5 POC
- Avg POC JNK3 (JNK3): 74 POC
- Avg POC Rsk4 (Rsk4): 87 POC
- Avg POC IGF-1R (IGF-1R): 82 POC
- Avg POC GSK3alpha (GSK3alpha): 105 POC
- Avg POC SGK1 (SGK1): 96 POC
- Avg POC ROCK-I (ROCK-I): 114 POC
- Avg POC MKK4_m (MKK4_m): 125.5 POC
- Avg POC Rse (Rse): 103 POC
- Avg POC MEK1 (MEK1): 121 POC
- Avg POC PASK (PASK): 70 POC
- Avg POC TLK2 (TLK2): 97.5 POC
- Avg POC Pim-3 (Pim-3): 105.5 POC
- Avg POC ERK2 (ERK2): 104 POC
- Avg POC MARK1 (MARK1): 97 POC
- Avg POC TrkA (TrkA): −1 POC
- Avg POC NEK7 (NEK7): 110 POC
- Avg POC CDK9/cyclinT1 (CDK9/cyclinT1): 98 POC
- Avg POC TrkB (TrkB): 0.5 POC
- Avg POC HIPK3 (HIPK3): 95.5 POC
- Avg POC Met (Met): 117 POC
- Avg POC MKK7beta (MKK7beta): 132.5 POC
- Avg POC RIPK2 (RIPK2): 99 POC
- Avg POC MAPKAP-K3 (MAPKAP-K3): 98.5 POC
- Avg POC Ros (Ros): 97.5 POC
- Avg POC JAK3 (JAK3): 94.5 POC
- Avg POC TAO2 (TAO2): 97.5 POC
- Avg POC PAK6 (PAK6): 95.5 POC
- Avg POC Tie2 (Tie2): 81.5 POC
- Avg POC TNK2 (TNK2): 114.5 POC
- Avg POC PKCdelta (PKCdelta): 91.5 POC
- Avg POC ERK1 (ERK1): 89.5 POC
- Avg POC PKD2 (PKD2): 106 POC
- Avg POC Plk2 (Plk2): 101 POC
- Avg POC KIT (KIT): 102 POC
- Avg POC KDR (KDR): 97.5 POC
- Avg POC CDK5/p25 (CDK5/p25): 107.5 POC
- Avg POC PrKX (PrKX): 73.5 POC
- Avg POC SIK (SIK): 104 POC
- Avg POC Lyn (Lyn): 86 POC

SMILES: COCc1ccc(C(F)(F)F)c(CNC(=O)Nc2c(C)c(-c3cnn(C)c3)nn2-c2ccccc2)c1 [Example 33, 1-(1′,4-dimethyl-1-phenyl-1H,1′H-[3,4′-bipyrazol]-5-yl)-3-(5-(methoxymethyl)-2-(trifluoromethyl)benzyl)urea]
- Avg POC TAO1 (TAO1): 118.5 POC
- Avg POC Ret (Ret): 91 POC
- Avg POC JNK3 (JNK3): 135 POC
- Avg POC Rsk4 (Rsk4): 95 POC
- Avg POC IGF-1R (IGF-1R): 44 POC
- Avg POC GSK3alpha (GSK3alpha): 161 POC
- Avg POC SGK1 (SGK1): 279 POC
- Avg POC ROCK-I (ROCK-I): 120.5 POC
- Avg POC MKK4_m (MKK4_m): 137 POC
- Avg POC Rse (Rse): 110 POC
- Avg POC MEK1 (MEK1): 117 POC
- Avg POC PASK (PASK): 205 POC
- Avg POC TLK2 (TLK2): 109 POC
- Avg POC Pim-3 (Pim-3): 103 POC
- Avg POC ERK2 (ERK2): 117 POC
- Avg POC MARK1 (MARK1): 109.5 POC
- Avg POC TrkA (TrkA): −1 POC
- Avg POC NEK7 (NEK7): 116.5 POC
- Avg POC CDK9/cyclinT1 (CDK9/cyclinT1): 108 POC
- Avg POC TrkB (TrkB): 0 POC
- Avg POC HIPK3 (HIPK3): 102 POC
- Avg POC Met (Met): 122.5 POC
- Avg POC MKK7beta (MKK7beta): 159 POC
- Avg POC RIPK2 (RIPK2): 98.5 POC
- Avg POC MAPKAP-K3 (MAPKAP-K3): 119.5 POC
- Avg POC Ros (Ros): 100.5 POC
- Avg POC JAK3 (JAK3): 114 POC
- Avg POC TAO2 (TAO2): 92.5 POC
- Avg POC PAK6 (PAK6): 147.5 POC
- Avg POC Tie2 (Tie2): 137.5 POC
- Avg POC TNK2 (TNK2): 119.5 POC
- Avg POC PKCdelta (PKCdelta): 93 POC
- Avg POC ERK1 (ERK1): 95.5 POC
- Avg POC PKD2 (PKD2): 106 POC
- Avg POC Plk2 (Plk2): 102 POC
- Avg POC KIT (KIT): 94 POC
- Avg POC KDR (KDR): 139.5 POC
- Avg POC CDK5/p25 (CDK5/p25): 100.5 POC
- Avg POC PrKX (PrKX): 146.5 POC
- Avg POC SIK (SIK): 139 POC
- Avg POC Lyn (Lyn): 104.5 POC
